Reference: US20230365488A1, “TRUXILLIC ACID MONOESTER-DERIVATIVES AS SELECTIVE FABP5 INHIBITORS AND PHARMACEUTICAL COMPOSITIONS AND USES THEREOF” (The Research Foundation for The State University of New York, priority 2020, published 2023)

Legend:
[1] = MTT cytotoxicity, RWPE-1 (Example 6); assay type: cell-based; settings: human, RWPE-1 cells (normal prostate cell line), 72-hour incubation
[2] = biological target: FABP3 (Homo sapiens (Human), UniProt P05413); assay: FABP3 fluorescent probe displacement binding assay; settings: average ± S.E. of at least three independent experiments
Chain of FABP3 (P05413 whole entry): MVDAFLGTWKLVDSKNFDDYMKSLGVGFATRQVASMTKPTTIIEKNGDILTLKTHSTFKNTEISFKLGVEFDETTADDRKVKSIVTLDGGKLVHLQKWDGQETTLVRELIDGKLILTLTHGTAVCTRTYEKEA

[3] = system: PC3 cells implanted subcutaneously; assay: Subcutaneous PC3 tumor growth in nude mice; assay type: in vivo, male BALB/c nude mice
[4] = system: DU-145 cells; assay: MTT cytotoxicity and taxane combination (CI) analysis, DU-145 (Example 6); assay type: cell-based, human; settings: for CI value / Fa value / Relationship: 1y 7.5 μM or 1w 1.0 μM
[5] = system: PC3 cells; assay: MTT cytotoxicity and taxane combination (CI) analysis, PC3 (Example 6); assay type: cell-based, human; settings: for CI value / Fa value / Relationship: PC3, 1y 7.5 μM or 1w 1.0 μM
[6] = biological target: FABP7 (Homo sapiens (Human), UniProt O15540); assay: FABP7 fluorescent probe displacement binding assay; settings: average ± S.E. of at least three independent experiments
Chain of FABP7 (O15540 whole entry): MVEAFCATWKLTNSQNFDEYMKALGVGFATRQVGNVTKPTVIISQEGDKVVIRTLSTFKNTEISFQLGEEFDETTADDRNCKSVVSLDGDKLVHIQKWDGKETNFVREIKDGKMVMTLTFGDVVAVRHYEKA

[7] = system: 22Rv1 cells; assay: MTT cytotoxicity and taxane combination (CI) analysis, 22Rv1 (Example 6); assay type: cell-based, human; settings: for CI value / Fa value / Relationship: 1y 7.5 μM or 1w 1.0 μM
[8] = MTT cytotoxicity, WI-38 (Example 6); assay type: cell-based; settings: human, WI-38 cells (normal lung cell line), 72-hour incubation
[9] = DU-145, combination with cabazitaxel 0.03 nM
[10] = DU-145, combination with cabazitaxel 0.3 nM
[11] = DU-145, combination with cabazitaxel 3.0 nM
[12] = DU-145, combination with docetaxel 0.03 nM
[13] = DU-145, combination with docetaxel 0.3 nM
[14] = DU-145, combination with docetaxel 3.0 nM
[15] = combination with cabazitaxel 0.03 nM
[16] = combination with cabazitaxel 0.3 nM
[17] = combination with cabazitaxel 3.0 nM
[18] = combination with docetaxel 0.03 nM
[19] = combination with docetaxel 0.3 nM
[20] = combination with docetaxel 3.0 nM
[21] = 22Rv1, combination with cabazitaxel 0.03 nM
[22] = 22Rv1, combination with cabazitaxel 0.3 nM
[23] = 22Rv1, combination with cabazitaxel 3.0 nM
[24] = 22Rv1, combination with docetaxel 0.03 nM
[25] = 22Rv1, combination with docetaxel 0.3 nM
[26] = 22Rv1, combination with docetaxel 3.0 nM

For COc1ccccc1[C@H]1[C@H](C(=O)O)[C@H](c2ccccc2OC)[C@H]1C(=O)OCC1c2ccccc2-c2ccccc21 (racemic) [Compound 1w], the IC50 at 72 h [1] was 20.6 µM, the Ki [2] was 25.3 ± 4.57 µM and the “tumor growth, coadministration with docetaxel” value ([3]; 20 mg/kg ip daily in combination with docetaxel 5 mg/kg weekly, comparable in magnitude to the 10 mg/kg docetaxel dose) was “greater inhibition of tumor growth than treatment with each compound alone”. The tumor growth ([3]; 20 mg/kg, ip, once daily, from day 15, versus vehicle) was “significantly reduced tumor growth”, the CI value [4, 9] was 0.449 and the Fa value [4, 9] was 0.464. The Relationship [4, 9] was “synergistic”, the CI value [4, 10] was 0.300 and the Fa value [4, 10] was 0.716. For the same compound, the Relationship [4, 10] was “synergistic”, the CI value [4, 11] was 0.194 and the Fa value [4, 11] was 0.882. The Relationship [4, 11] was “synergistic”, the CI value [4, 12] was 4.473 and the Fa value [4, 12] was 0.516. It also gave a CI value [4, 13] of 2.697, a Fa value [4, 13] of 0.676 and a CI value [4, 14] of 0.445. The Fa value [4, 14] was 0.935, the Relationship [4, 14] was “synergistic” and the “cytotoxicity of combination with docetaxel or cabazitaxel versus each drug administered independently” value ([4]; DU-145 cells) was “greater cytotoxicity”. The IC50 ([4]; Homo sapiens, DU-145, MTT, 72-hour incubation, single agent) was 3.3 µM, the IC50 ([5]; Homo sapiens, PC-3, MTT, 72-hour incubation, single agent) was 6.3 µM and the CI value [5, 15] was 0.899. For the same compound, the Fa value [5, 15] was 0.379, the Relationship [5, 15] was “synergistic” and the CI value [5, 16] was 0.942. The Fa value [5, 16] was 0.420, the Relationship [5, 16] was “synergistic” and the CI value [5, 17] was 0.373. The Fa value [5, 17] was 0.853, the Relationship [5, 17] was “synergistic” and the CI value [5, 18] was 0.710. The Fa value [5, 18] was 0.402, the Relationship [5, 18] was “synergistic” and the CI value [5, 19] was 0.889. The Fa value [5, 19] was 0.432, the Relationship [5, 19] was “synergistic” and the CI value [5, 20] was 0.394. For the same compound, the Fa value [5, 20] was 0.700, the Relationship [5, 20] was “synergistic” and the “cytotoxicity of combination with docetaxel or cabazitaxel versus each drug administered independently” value ([5]; PC3 cells) was “greater cytotoxicity”. The Ki [6] was 4.26 ± 0.41 µM, the CI value [7, 21] was 0.731 and the Fa value [7, 21] was 0.577. The Relationship [7, 21] was “synergistic”, the CI value [7, 22] was 0.549 and the Fa value [7, 22] was 0.728. For the same compound, the Relationship [7, 22] was “synergistic”, the CI value [7, 23] was 0.659 and the Fa value [7, 23] was 0.823. The Relationship [7, 23] was “synergistic”, the CI value [7, 24] was 1.673 and the Fa value [7, 24] was 0.457. For the same compound, the CI value [7, 25] was 0.373, the Fa value [7, 25] was 0.744 and the Relationship [7, 25] was “synergistic”. The CI value [7, 26] was 0.267, the Fa value [7, 26] was 0.905 and the Relationship [7, 26] was “synergistic”. The “cytotoxicity of combination with docetaxel or cabazitaxel versus each drug administered independently” value ([7]; 22Rv1 cells) was “greater cytotoxicity”, the IC50 ([7]; Homo sapiens, 22Rv1, MTT, 72-hour incubation, single agent) was 3.1 µM and the IC50 at 72 h [8] was 29.6 µM.
